Experimental data published in patent US5367077A (priority 1992, dated 1994).

Each compound was assayed against GABAa receptor (assay: GABAa receptor binding assay: displacement of [3H]-Flumazenil (RO15-1788) from rat cortical tissue). Conditions: rat cortical tissue homogenate, 0.5 nM 3H-RO15-1788, 30 min at 4° C., pH 7.4.
Experimental: The pharmaceutical utility of compounds of this invention are indicated by the following assay for GABAa receptor activity.
Assays are carried out as described in Thomas and Tallman (J. Bio. Chem. 156: 9838-9842 , J. Neurosci. 3: 433-440, 1983). Rat cortical tissue is dissected and homogenized in 25 volumes (w/v) of 0.05M Tris HCl buffer (pH 7.4 at 4° C.). The tissue homogenate is centrifuged in the cold (4° ) at 20,000×g for 20'. The supernatant is decanted and the pellet is rehomogenized in the same volume of buffer and again centrifuged at 20,000×g. The supernatant is decanted and the pellet is frozen at -20° C. overnight. The pellet is then thawed and rehomogenized in 25 volume (original wt/vol) of buffer and the procedure is carried out twice. The pellet is finally resuspended in 50 volumes (w/vol of 0.05M Tris HCI buffer (pH 7.4 at […]).
Incubations contain 100 μl of tissue homogenate, 100 μl of radioligand 0.5nM (^3 H-RO15-1788 [^3 H-Flumazenil] specific activity 80 Ci/mmol), drug or blocker and buffer to a total volume of 500 μl. Incubations are carried for 30 min at 4° C. then are rapidly filtered through GFB filters to separate free and bound ligand. Filters are washed twice with fresh 0.05M Tris HCI buffer (pH 7.4 at 4° C.) and counted in a liquid scintillation counter. 1.0 μM diazepam is added to some tubes to determine nonspecific binding. Data are collected in triplicate determinations. averaged and % inhibition of total specific binding is calculated. Total Specific Binding=Total-Nonspecific. In some cases, the amounts of unlabeled drugs is varied and total displacement curves of binding are carried out. Data are converted to a form for the calculation of IC50 and Hill Coefficient (nH).
Work on `Fc1ccccc1-c1cc2c3c([nH]c2cn1)CCCC3` [Compound 2] yielded an IC50 of 550 nM.
`COc1cccc(-c2cc3c4c([nH]c3cn2)CCC2(C4)OCCO2)c1` [Compound 18, 2'-(3-Methoxyphenyl)-5',6',7',9'-tetrahydro-spiro[(1,3)dioxolane-2,8'-5H-indolo[3,4-b]pyridine]] showed an IC50 of 120 nM.
Work on `Fc1ccccc1-c1cc2c3c([nH]c2cn1)CCN(Cc1ccccc1)C3` [Compound 20, 8-Benzyl-2-(2-fluorophenyl)-5,6,7,9-tetrahydro-5H-pyrido[4,3-b]pyrido[4,3-d]-pyrrole] yielded an IC50 of 130 nM.
Compound `COc1cccc(-c2cc3c4c([nH]c3cn2)CCN(Cc2ccccc2)C4)c1` [Compound 24, 8-Benzyl-2-(3-methoxyphenyl)-5,6,7,9-tetrahydro-5H-pyrido[4,3-b]pyrido[4,3-d]-pyrrole] has an IC50 of 240 nM.
